Measurements published in the supplement of paper PMC11997997.

Columns and labels:
[1] = system: Mycobacterium tuberculosis CDC1551 (intracellular, in murine BMDM); assay: area under intracellular growth-inhibition dose-response curve (AUC (% inhibition x dose, relative)); higher = more potent; settings: duration: 6 days; dose range: 0.13-80 uM, 8 points
In short: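 The value is the area under the growth-inhibition dose–response curve, calculated in GraphPad Prism. Primary murine bone marrow-derived macrophages were seeded in 384-well opaque plates and, 24 h later, infected for 1 h with luciferase-expressing M. tuberculosis CDC1551 at multiplicity of infection 1. Cells were then exposed for 6 days to an 8-dose, 2.5-fold series (final 80–0.13 μM). Growth was read with the Bright-Glo luciferin assay and normalised to a reference drug control and to the lowest-concentration wells.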

[2] = system: murine bone marrow-derived macrophages; assay: area under cytotoxicity dose-response curve (AUC (% cytotoxicity x dose, relative)); higher = more cytotoxic; settings: duration: 6 days; dose range: 0.13-80 uM, 8 points
In short: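 Values are the area under the cytotoxicity dose–response curve, calculated with GraphPad Prism version 10. Primary murine bone marrow-derived macrophages were exposed to final concentrations of 80–0.13 μM for 6 days, and viability was read by CellTiter-Glo luminescence with normalisation to vehicle and positive control wells.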

Row | SMILES | area under intracellular growth-inhibition dose-response curve [1] | area under cytotoxicity dose-response curve [2]
1 | COc1ccc(/C=N/NC(=O)c2ccncc2)cc1CN1CCCc2ccccc21 | 201 | 19.4
2 | O=C(Nc1ccc(S(=O)(=O)NC2=NCCCCC2)cc1)c1cccs1 | 43.4 | 3.27
3 | O=C(NN=C(Cc1ccccc1)Cc1ccccc1)c1ccncc1 | 257 | 7.4
4 | CCCc1nnc(NC(=S)Nc2ccccc2)s1 | 213 | < 0
5 | COc1ccc(N2C(C)=CC(=Cc3sc4ccccc4[n+]3C)C=C2C)cc1.[I-] | < 0 | 87.2
6 | Clc1cnc(N/N=C/c2ccco2)c(Cl)c1 | 189 | 93.8
7 | COC(=O)c1ccc(COc2ccc(/C=N/NC(N)=S)cc2)o1 | 277 | 50.5
8 | Cc1nc(N/N=C\c2ccc3c(c2)OCO3)sc1C | 252 | 150
9 | O=C(c1ccc([N+](=O)[O-])o1)N(Cc1nnc(-c2ccccc2Cl)o1)C1CC1 | 192 | 41.5
10 | CCN(CC)c1ccc(NC(=S)Nc2ccc(F)cc2)cc1 | 106 | 90.6
11 | C/C(Cn1nnc([N+](=O)[O-])n1)=N\NC(=O)c1ccncc1 | 271 | < 0
12 | CC(=O)OCC1=C(C(=O)O)N2C(=O)C(NC(=O)Cn3nc(C(F)F)c(Cl)c3C)C2SC1 (centres undefined) | 195 | 2.26
13 | CCCOc1ccccc1OCC(=O)N1CCN(S(=O)(=O)c2ccc(Cl)cc2)CC1 | 48.8 | 126
14 | Cc1ccc2ccc3ccc(C)nc3c2n1 | 29.4 | 160
15 | CCC(=O)NC(=S)Nc1ccc(NC(=O)c2ccco2)cc1 | 233 | 64.5
16 | O=C(N/N=C/c1ccccc1C(=O)O)c1ccncc1 | 266 | 37.2
17 | c1csc(Cc2nn3c(-c4[nH]nc5c4CCC5)nnc3s2)c1 | 251 | 44.4
18 | Cc1ccc(OCCCC(=O)NNC(=O)c2ccncc2)cc1 | 268 | 10.4
19 | O=C(COc1ccccc1)NC1CCCCC1 | 260 | 80.6
20 | O=C(NC1CCCC1)C1CC1c1ccccc1 (centres undefined) | 135 | < 0
21 | COc1c(/C=N/NC(=O)c2ccncc2)c(CCN(C)C(C)=O)cc2c1OCO2 | 252 | 96.3

Row | SMILES | area under intracellular growth-inhibition dose-response curve [1] | area under cytotoxicity dose-response curve [2]
22 | Cc1ccnc2c1ccc1c(C)ccnc12.O | 199 | 38.9
23 | O=C(NCCC1=CCCCC1)c1ccc(F)cc1 | 122 | 3.13
24 | COc1ccc(CCNC(=O)c2c(C)nc3ccccn23)cc1 | 198 | < 0
25 | S=C(NCc1ccc(Cl)cc1)NC12CC3CC(CC(C3)C1)C2 | 157 | < 0
26 | CCOC(=O)c1ccc(N2CN(CC)CNC2=S)cc1 | 254 | 10.1
27 | O=[N+]([O-])c1[c][c]c(Sc2[c][c][c][c][n+]2[O-])c2nonc12 | 48.7 | 119
28 | O=C(CSc1nc(-c2ccccc2)ns1)N1CCOCC1 | 163 | 56.3
29 | O=C(NCc1ccc(Cl)cc1)c1ccc(Br)o1 | 204 | 52.2
30 | CCNC(=S)N/N=C(\C)c1ccc(N2CCOCC2)cc1 | 164 | 43.5
31 | Cc1ccc(C(=O)NC(C)C2CC3CCC2C3)cc1 (centres undefined) | 267 | < 0
32 | Cc1ccc(C2(C)NC(=O)N(CC(=O)N3c4ccccc4NC(=O)CC3C)C2=O)cc1 (centres undefined) | 36.2 | 3.65
33 | CC(=O)c1cccc(NC(=O)NC2CCCCCCC2)c1 | 244 | 36.2
34 | Cc1ccc(Cc2c(C)c(C#N)c3nc4ccccc4n3c2O)cc1 | 240 | 75.7
35 | CC(=O)Nc1ccc(-c2c(C)cc3oc(=O)cc(-c4ccccc4)c3c2C)cc1 | 221 | 113
36 | CCN(CC)S(=O)(=O)c1ccc2c(c1)c(=O)c(C(=O)NCCc1ccccc1)cn2C | 157 | 22.5
37 | O=C(NCc1ccncc1)c1cccc(S(=O)(=O)N2CCc3ccccc32)c1 | < 0 | 39.9
38 | CC(=O)OCC1=C(C(=O)O)N2C(=O)[C@@H](NC(=O)CSc3ccncc3)[C@H]2SC1.[Na+] | 114 | 52.5
39 | CC(C)(C)C(=O)N1CCN(c2ccc(NC(=O)c3ccc([N+](=O)[O-])o3)cc2)CC1 | 105 | 104
40 | CC1CC(C)CN(C(=O)C2CCC(CNc3c(N4CCCCC4)c(=O)c3=O)CC2)C1 (centres undefined) | 125 | 0.615
41 | O=C(COc1ccccc1)NCc1ccccc1 | 163 | 14.8
42 | COc1cc(C(=O)Nc2cc(S(=O)(=O)N3CCOCC3)ccc2N2CCOCC2)ccc1OC(F)F | 44.6 | < 0

Row | SMILES | area under intracellular growth-inhibition dose-response curve [1] | area under cytotoxicity dose-response curve [2]
43 | O=C(c1ccc([N+](=O)[O-])o1)N1CCN(Cc2ccccc2)CC1 | 151 | 4.42
44 | O=C(CCCOc1ccc(Cl)cc1Cl)Nc1ccccc1C(=O)O | 83.7 | 0.729
45 | N#Cc1ccc(OCC(=O)N2CCN(S(=O)(=O)c3ccc(Cl)s3)CC2)cc1 | 31.9 | 65.3
46 | CCC(=O)N1NC(=C2C(=O)N(C)C(=O)N(C)C2=O)CC1c1ccccc1 (centres undefined) | 122 | 23.3
47 | O=C(CSc1nc2ccccc2nc1N1CCOCC1)N1CCN(c2ccccc2)CC1 | 199 | 22.9
48 | O=C(CNC(=O)c1ccc([N+](=O)[O-])cc1)N/N=C\c1ccc(OC(=O)c2ccccc2)cc1 | 109 | < 0
49 | O=[N+]([O-])c1ccc(CN2CCN(c3ccc(Cl)cc3)CC2)o1 | 222 | 33.9
50 | NC1CCN(c2c(F)cc3c(=O)c(C(=O)O)cn(C4CC4)c3c2Cl)C1 (centres undefined) | 210 | < 0
51 | O=C(c1cc2ccccc2o1)N1CCN(Cc2ccc3c(c2)OCO3)CC1 | 172 | 68.3
52 | [O-][n+]1onc2c3cc(-c4ccccc4)[nH]c3ccc21 | 74.3 | 40.6
53 | Cn1c(=O)n(C)c2cc(/C=N/NC(N)=S)ccc21 | 262 | < 0
54 | C#CCSc1nnc(-c2ccc([N+](=O)[O-])cc2)o1 | 246 | < 0
55 | N#Cc1ccc(C(=O)NCC2CCCCC2)cc1 | 107 | 44.2
56 | CCC(CO)N1C(C)=CC(=Cc2sc3ccccc3[n+]2Cc2ccccc2)C=C1C.[Br-] (centres undefined) | 176 | 54.8
57 | CC[N+](CC)(CC)CCCCOc1ccc2c(c1)C(=O)c1cc(OCCCC[N+](CC)(CC)CC)ccc1-2.[I-] | 92.4 | 56.8
58 | COc1ccc(OCCCC(=O)NNC(=O)c2ccncc2)cc1 | 227 | 6.62
59 | CCCCN1CC(COc2ccccc2)OC1=O (centres undefined) | 195 | < 0
60 | O=C(CCN1C(=O)S/C(=C/c2ccccc2)C1=O)Nc1ccc(C(=O)O)c(O)c1 | 117 | 156
61 | COc1cccc2sc(N3CCN(C(=O)c4ccc([N+](=O)[O-])o4)CC3)nc12 | 6.52 | 57.3
62 | CCN(CC)CCNc1nc(-c2ccc(OC)cc2)c(-c2ccc(OC)cc2)s1 | 203 | 3.78
